For test [1], the system named is Aspergillus flavus ATCC MYA-3631 (strain K). The experiment in a line: Antifungal MIC determination, filamentous fungi spores. The note with it: all compounds. Type of test: cell-based. Summed up:
(§1)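 Broth microdilution per CLSI M27-A3 (modified) in RPMI 1640 buffered to pH 7.0 with 0.165 M MOPS; yeast inocula grown in PDB, Aspergillus spores from PDA cultures at 25° C. Final drug 12.5-0.02 μg/mL, inoculum 5×10^3 CFU/mL; incubation 48 h at 35° C.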

Test [2] concerns Aspergillus terreus ATCC MYA-3633 (strain M). The test is described as above. Type of test: cell-based. The note with it: strain M; all compounds; spores. The method in brief: as §1
The test system of test [3] is Aspergillus nidulans ATCC 38163 (strain L). The test is described as above. In kind it is cell-based. The note with it: strain L; spores. Summed up: as §1
Test [4] concerns C. albicans ATCC MYA-2310(S) (strain E). The experiment in a line: Antifungal MIC determination (CLSI M27-A3, 96-well). In kind it is cell-based, Candida albicans. The note with it: strain E; compounds 1-4n and AmB; 48 h, RPMI 1640. The method in brief:
(§2)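 Yeasts were precultured in potato dextrose broth, then diluted in RPMI 1640 (pH 7.0, 0.165 M MOPS) to a final 5×10^3 CFU/mL. Compounds were serially diluted two-fold to 12.5-0.02 μg/mL. Plates were incubated 48 h at 35° C.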

Test [5] has as its system C. albicans ATCC MYA-2876(S) (strain C). Described as above. In kind it is cell-based, Candida albicans. The note with it: strain C; compounds 1-4n and AmB; 48 h, RPMI 1640. Summed up: as §2

For 3 compounds, MIC-0 results are on record in patent US10544112B2, “Identification of ebsulfur analogues with broad-spectrum antifungal activity” (priority 2017, dated 2020).

The structures appear in SMILES notation. Values after ≈ are worked out from the molar mass of the structure shown.

Turning to `CC(C)(C)n1sc2ccccc2c1=O` [Compound 3g], the MIC-0 in test [1] is 0.10 µg/mL (≈ 0.482 µM); in test [2], 0.10 µg/mL (≈ 0.482 µM); in test [3], 0.10 µg/mL (≈ 0.482 µM); in test [4] it was 1.56 µg/mL (≈ 7.53 µM); in test [5] it was 3.13 µg/mL (≈ 15.1 µM).
With `CCCCCCn1sc2ccccc2c1=O` [Compound 3b], the MIC-0 in test [1] is not above 0.02 µg/mL; in test [2] it was not above 0.02 µg/mL; in test [3], ≤≤0.02 μg/mL; in test [4] it was 0.78 µg/mL (≈ 3.31 µM); in test [5], 0.78 µg/mL (≈ 3.31 µM).
On to `CCCCCn1sc2ccccc2c1=O` [Compound 3a], for which the MIC-0 in test [1] was not above 0.02 µg/mL; in test [2], not above 0.02 µg/mL; in test [3], not above 0.02 µg/mL; in test [4], 0.39 µg/mL (≈ 1.76 µM); in test [5] it was 0.78 µg/mL (≈ 3.52 µM).
